This is an account of results in patent US20230226079A1, “METHODS AND COMPOSITIONS FOR TREATMENT OF SOLID TUMORS” (Saint Louis University, priority 2022, published 2023).

Entries after “also recorded” stand apart in the source; their conditions may differ.

The test system of one data set is NK3.3 cells. Description: NK-cell viability. It is filed as cell-based. As to the method: FIG. 9 illustrates NK3.3 cells treated with bitter melon extract or M-I and cell viability was measured at 48h or 72h after treatment. Results shown are an average of three independent experiments. Small bar indicates standard error. (* p <0.05)
(§1) NK cells are implicated in drug induced resistant cancer cells to drive tumor growth (Smalley et al., 2020). […] Bitter melon extract was used as a control. Control or M-I treated NK3.3 cells were also cocultured with MDA-MB-231 cells at 1:5 (Target:Effector) ratio for 24 h and stained for viable/dead cells. […] The apoptotic markers were further examined by Western blot analysis.

For a further data set, the system named is Ca127 xenograft. Description: Tumorigenicity assay, Ca127 xenograft model. Type of data set: in vivo, nude mice. As to conditions: M-I 30 mg/kg IP once a day, BME 30% in drinking water. As to the method:
JHU029 or Ca127 cells (1.5 10^6) containing 40% Matrigel were injected subcutaneously into the flank of BALB/c athymic nude mice (7-8 weeks old). When the palpable tumor was developed (>60 mm3), mice were divided into three groups randomly, 5 mice in each group. The control group was without any treatment. The BME group received 30% (v/v) BME through drinking water. M-I group received 30 mg/kg dose of M-I once in day, every day. Body weight was monitored, and tumor size was measured using a slide caliper and volume was calculated using the formula 1/2 L X W2. After animal sacrifice tumors were dissected out and snap frozen in liquid nitrogen for further analysis. All the animal experiments were carried out in accordance NIH guidelines, following a protocol approved (1017) by the Institutional Animal Care and Use Committee (IACUC) of Saint Louis University.

Data set [1] deals with HNC (JHU022, JHU029, Ca127) cell lines. It is filed as cell-based. As to the method:
(§2) Ca127, JHU029, JHU022 and NOK were seeded in 96 well-plate (5000 cells/well) and cells were treated with different concentration of M-I for 48 h. There were untreated control and DMSO treated vehicle control group for comparison. Cytotoxicity assay was performed using Cell Counting Kit-8 (Dojindo Molecular Technology, Rockville, Md., USA) according to manufacturer instruction.
Due to their limited reported biology, the Inventors have selected a few triterpenoids and triterpene glycosides, based on their availability, for preliminary in vitro screening against HNC (JHU022, JHU029, Ca127) cell lines. The Inventors identified momordicine-I (M-I) as one of the chemical constituents at the retention time of 21.06 min in the BME (FIG. 1A). The M-I [C30H4804, PubChem CID: 14807332; IUPAC Name: (3S, 7S, 8S, 9R, 10R, 13R, 14S, 17R) 3,7-dihydroxy-17-(4-hydroxy-6-methylhept-5-en-2-yl)-4,4,13,14-tetramethyl-2,3,7,8,10,11, 12,15, 16,17-decahydro-1H-cyclopenta[a]phenanthrene-9-carbaldehyde] is a white crystalline solid that belongs to the cucurbitane-type triterpene class (FIG. 1B). […] Other compounds, mom ordicoside K (MK), and karavilagenin D (KD), were also examined on HNC cell cytotoxicity assay. These, two other compounds required much higher amounts (>50 ug/mL) even for -40% cell death.

Another data set has as its system MDA-MB-231 cells. It is filed as cell-based.
Text: FIG. 10A illustrates Treated or untreated cells were stained with Calcein AM (green color indicates live cells) and ethidium homodimer-1 (red color inndicates dead cells-shown by white arrows) to quantitate the live and dead cells by fluorescence microscopy with corresponding bright field images. Magnification 10X. Arrows indicate dead cells. FIG. 10B illustrates Quantitation of relative dead cells, calculated from five random fields. Small bar indicates standard error ***p<0.001).
FIG. 11 illustrates M-I activates NK cells for killing activity. MDA-MB-231 cells were co-cultured with NK cells activated by IL2, BME or M-I. After 24 hr cell lysates were prepared and subjected to Western blot analysis using specific antibodies. Left panel: Representative western blot images for cleaved PARP, expression of cleaved Caspase 9 and 3 are shown. Membrane was reprobed with antibody for Actin as an internal control.
as §1

The test system of data set [2] is 4T1 (mouse) cells implanted into the mammary fat pad. Description: Orthotopic syngeneic breast cancer mouse model (4T1). Type of data set: in vivo, Balb/c mice. To be noted: M-I 30 mg/mouse/day ip; pilot study. As to the method:
FIG. 12 illustrates 4T1 cells tumor bearing mice were randomly divided into two groups mice (n=4). Starting day of treatment by M-I (red color) or vehicle (control-blue color) graph was marked by up arrow.
The Inventors further evaluated the efficacy of M-I in orthotopic breast cancer mouse models in a pilot study. Syngeneic breast cancer model using 4T1 (mouse) cells implanted into the mammary fat pad of Balb/c mice. Mice were divided into two groups. One group received M-I (30 mg/mouse/day) and the other group received vehicle as a control by ip.

For the next data set, the system named is insulin secretion. To be noted: in vitro; cited from earlier work.
The subject of data set [3] is TNBC cell lines MDA-MB-231, BT459 and MDA-MB-468. The data set is described as follows: TNBC cell cytotoxicity assays. It is filed as cell-based. The source says:
The Inventors tested human MDA-MB-231 and mouse 4T1 cells in dose dependent manner (FIG. 8). […] The Inventors also tested other compounds in TNBC cell cytotoxicity assays, but these required much higher amounts (>[…]) even for ˜40% cell death.

The conditions of data set [4]: literature; listed as Momordicine I; cited from earlier work.
The subject of data set [5] is normal mammary epithelial cells. The data set is described as follows: Cytotoxicity in normal mammary epithelial cells. Type of data set: cell-based, human.
For data set [6], the system named is normal oral keratinocytes (NOK). The data set is described as follows: Cytotoxicity assay in normal oral keratinocytes. Type of data set: cell-based, human. As to conditions: 48 h.
Text: Normal oral keratinocytes (NOK) (kindly gifted by Dr. Karl Mugner, Tuffs University, Boston, MA, USA) were maintained in Keratinocyte SFM medium supplemented with EGF and bovine pituitary extract (GIBCO, Life Technologies, Berkeley, MO, USA) and 1% penicillin/ streptomycin. HNC cell line Ca127 was purchased from the ATCC. JHU029 (JHU-29) and JHU022 (JHU-22) cell lines were procured from the Johns Hopkins University (Baltimore, MD, USA). The Ca127 and JHU022 cells were maintained in Dulbecco's Modified Eagle Medium (DMEM), and JHU029 cells were in RPMI1640 (Sigma, St. Louis, Mo., USA) media supplemented with 10% FBS and 1% penicillin/ streptomycin (Sigma-Aldrich, St. Louis, Mo., USA) in a humidified CO2 incubator. The cell lines are routinely tested in the Inventors' laboratory to rule out mycoplasma contamination using a commercial Mycoplasma Detection kit (MycoAlert™, Lonza, Morrisville, N.C., USA). Ca127 cells are tongue origin and JHU022 and JHU029 cells are from larynx origin.
as §2

In the case of `CC(C)=CC(O)CC(C)[C@H]1CC[C@@]2(C)[C@@H]3[C@@H](O)C=C4[C@@H](CC[C@H](O)C4(C)C)[C@]3(C=O)CC[C@]12C` (stereo partly drawn) [M-I, (3S, 7S, 8S, 9R, 10R, 13R, 14S, 17R) 3,7-dihydroxy-17-(4-hydroxy-6-methylhept-5-en-2-yl)-4,4,13,14-tetramethyl-2,3,7,8,10,11, 12,15, 16,17-decahydro-1H-cyclopenta[a]phenanthrene-9-carbaldehyde], the NK-cell viability entry with NK3.3 cells is on record as “no cytotoxic effect”. For the same compound, the “reduction of tumor growth” value in the data set with Ca127 xenograft is recorded as −50%. For the same compound, the body weight result in the data set with Ca127 xenograft (throughout the experiment) is “increasing body weight”. In addition, the “inhibition of HNC cells in cytotoxicity assay” value in data set [1] was “inhibited HNS cells in a dose-dependent manner”. The “cytotoxicity of treated NK3.3 cells against MDA-MB-231 cells” value with MDA-MB-231 cells was “enhanced cytotoxicity”. Moreover, the “caspase 9/3 and PARP cleavage in breast cancer cells” value in the data set on MDA-MB-231 cells (M-I treated NK cells co-cultured with MDA-MB-231 cells, 24 hr, Western blot) is “activate caspase 9/3 and PARP cleavage”. In addition, the “tumor volumes versus vehicle control” value in data set [2] was “significantly reduced”. The insulin secretion entry in the data set with insulin secretion is recorded as “stimulate insulin secretion”. Also, the “cell growth of TNBC cell lines” value in data set [3] is reported as “inhibits cell growth in a time-dependent manner”. Further, the “Reported Biology” value in data set [4] is on record as “stimulate insulin; also recorded: cardiac fibrosis”. The “effect on human normal mammary epithelial cells” value in data set [5] is listed as “minimum effect”. Also, the “effect on human normal oral keratinocytes (NOK)” value in data set [6] is given as “minimum effect”.
